The structures appear in SMILES notation. “And” between values parts separate entries of the source, which are not always exact repeats. Identical values can stand only once.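 Compound exposure: 48 hours, 5 concentrations, 96-well plates. GI50 marks 50% less growth. TGI: total growth inhibition.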

The subject of this test is MDA-MB-468 breast. Nature of the test: NCI tumour cell line growth inhibition, 48 h.

`COc1cc(/C=C2\C(=O)Nc3cc(C)c(O)cc32)cc(OC)c1OC`: the GI50 was 1500 nM and the TGI is 5880 nM.

Consider `COc1ccc(-c2cn[nH]c2-c2cc(OC)c3c(c2)OCO3)cc1`, for which the GI50 is 152 nM and the TGI amounted to 733 nM.

Consider `CCCNNC(=O)/C=C/c1ccc(CNCCc2c(C)[nH]c3ccccc23)cc1`, for which the GI50 is 27.9 nM and the TGI came out at 529 nM.

As to `COC(=O)CCc1c[nH]c2ccc(N(CCCl)CCCl)cc12`, the GI50 was 311 nM and the TGI was 1810 nM.

`C=C1C(=O)O[C@H]2[C@H]1CC/C(COC(=O)CSCCSCC(=O)OC/C1=C/CC[C@@]3(C)O[C@H]3[C@H]3OC(=O)C(=C)[C@@H]3CC1)=C\CC[C@@]1(C)O[C@@H]21`: the GI50 was 1070 nM and the TGI was 2850 nM.

For `Cc1ccc(-c2csc(/N=C3\C(=O)Nc4ccccc43)n2)cc1`, the GI50 was 1460 nM and the TGI was determined as 3510 nM.

As for `O=S(=O)(Nc1ccccc1Cl)c1ccc(-c2cnc(C3CC3)o2)cc1`, the GI50 was 236 nM and the TGI was 6910 nM.

As for `Cc1ccc(C)c2c1C(O)(C#Cc1ccccc1)c1ccccc1C2(O)C#Cc1ccccc1` (stereo unspecified), the GI50 was 3570 nM and the TGI was > 100000 nM.

For the compound `CNC(=O)c1ccc(N2CCN(Cc3ccc4nc(C)c(=O)[nH]c4c3F)CC2)c(F)n1`, the GI50 is 27800 nM and the TGI was > 100000 nM.

Turning to `CO[C@H]1/C=C/O[C@@]2(C)Oc3c(C)c(O)c4c(c3C2=O)C(=O)C(/C=N/N(c2ccccc2)c2ccccc2)=C(NC(=O)/C(C)=C\C=C\[C@H](C)[C@H](O)[C@@H](C)[C@@H](O)[C@@H](C)[C@H](OC(C)=O)[C@@H]1C)C4=O`, the GI50 is 2090 nM and the TGI worked out at 4690 nM.

On to `CN(C)CCCOc1ccc(-c2ccc3ncc4c(c3c2)n(C2CCOCC2)c(=O)n4C)cn1`, for which the GI50 is 2080 nM and the TGI turned out to be 15700 nM.

Turning to `CCN(Cc1cccc(F)c1)c1ccc(CO)c(Cl)c1`, the GI50 is 15.7 nM and the TGI stood at 38.1 nM.

Regarding `Nc1ccc(C2=NN(c3ccccc3)C(c3ccc(Cl)cc3)C2)cc1` (stereo unspecified), the GI50 was 1660 nM and the TGI came out at 4090 nM.

Regarding `COc1ccc(C(=O)/C=C/c2ccc(C)cc2)cc1OC`, the GI50 was 11400 nM and the TGI came out at 24600 nM.

For `CN[C@H]1C=C[C@@H]2/C=C(C)/C=C/[C@@H](C)[C@H]([C@H](C)[C@H](O)[C@@H](C)NC(C)=O)OC(=O)/C=C/C=C(C)\C=C\[C@]2(C)C1`, the GI50 was < 1 nM and 4.9 nM.

For the compound `Cc1nn(-c2nc3ccccc3[nH]2)c(N)c1-c1ccc(Cl)cc1`, the GI50 was 2690 nM and the TGI is > 100000 nM.

`S=C(Nc1ccc(Br)cc1)Nc1ccc(Br)cc1`: the GI50 is 2260 nM and the TGI amounted to 14000 nM.

Consider `Cc1ccc2c(n1)C(=O)C(Cl)=C(Nc1ccc(C)c(C)c1)C2=O`, for which the GI50 was 317 nM and the TGI worked out at 1340 nM.

`Cn1cc(C2=C(c3cn(CCCCN)c4ccccc34)C(=O)NC2=O)c2ccccc21`: the GI50 was > 25000 nM and the TGI was > 25000 nM.

`O=C(Nc1cccc(-n2ccc3c(NC(=O)c4ccccc4)nccc32)c1)Nc1cc(C(F)(F)F)cc(C(F)(F)F)c1`: the GI50 is 1550 nM and the TGI was 13600 nM.

Take `COC(=O)CCC(=O)NC1=C(Nc2ccc(OC)cc2)C(=O)c2ccccc2C1=O`: the GI50 was 3090 nM and the TGI amounted to 12200 nM.

As to `Cc1cnc(NC(=O)Nc2cc(Br)c(C)cc2OC[C@@H]2CNCCO2)cn1`, the GI50 was 3860 nM and 834 nM; the TGI is > 10000 nM and 5490 nM.

For the compound `COc1cc(-c2cc3ncccc3c3nc(N)c4cccnc4c23)cc(OC)c1OC`, the GI50 is 555 nM and the TGI came to 66800 nM.

For the compound `CN(C)S(=O)(=O)c1ccc(-c2nc(C(Cl)Cl)nc3cc(-c4ccc(F)cc4)nn23)cc1`, the GI50 was 1630 nM and the TGI was found to be 4640 nM.

As for `OCc1ccc(-c2ccc(-c3ccc(CO)o3)[se]2)o1`, the GI50 was 219 nM and the TGI was 704 nM.

Consider `COC(=O)[C@@H](C)C[C@H](Cc1ccccc1)NC(=O)c1csc(CC[C@H](C(C)C)N(C)C(=O)[C@@H](NC(=O)[C@H]2CCCCN2C)C(C)C)n1`, for which the GI50 is 68.9 nM and the TGI amounted to 275 nM.

As to `CC[N+](CC)=c1sc2c(s1)C(c1ccc(Cl)cc1)Oc1ccc(Cl)cc1-2` (stereo unspecified), the GI50 was 1400 nM and the TGI came to 4120 nM.

Take `COc1cc(OC)cc(N(CCNC(C)C)c2ccc3ncc(-c4cnn(C)c4)nc3c2)c1`: the GI50 is 3070 nM and the TGI was 13000 nM.

For the compound `COC(=O)c1c2c(c[n+]([O-])c1C)C(=O)C=CC2=O`, the GI50 was 914 nM and the TGI was determined as 3010 nM.

For the compound `O=c1c(Oc2ccc(F)cc2F)cc2cnc(NC3CCOCC3)nc2n1CCCO`, the GI50 is > 25000 nM and the TGI is > 25000 nM.

Consider `CCc1cccc(C)c1NC(=O)c1sc2nc3c(cc2c1N)CCCCC3`, for which the GI50 was 4180 nM and the TGI was > 100000 nM.

Take `Cc1nc(SCC(=O)Nc2nc(-c3ccc(Cl)cc3)cs2)n(Nc2ccccc2)c1C`: the GI50 is 1450 nM and the TGI came out at 6270 nM.

With `FC(F)c1nc2ccccc2n1-c1nc(N2CCOCC2)nc(N2CCOCC2)n1`, the GI50 was 135 nM and 124 nM; the TGI was 971 nM and 607 nM.

Take `CCC[CH2][Sn]([CH2]CCC)([CH2]CCC)[O]c1ccc(Cl)cc1Cl`: the GI50 was 105 nM and the TGI was 250 nM.

On to `O=C(CO[N+](=O)[O-])Nc1ccc(C(=O)/C=C/c2ccc(Cl)cc2)cc1`, for which the GI50 was 2060 nM and the TGI was determined as 5070 nM.

Turning to `CCOC(=O)N1CCN(c2nc(Nc3cc(C)[nH]n3)c3ccccc3n2)CC1`, the GI50 is 1800 nM and the TGI is 8420 nM.

As to `COc1cccc(-c2cc(=O)c3cc(OC)ccc3[nH]2)c1`, the GI50 is 982 nM and the TGI is > 100000 nM.

`CCOC(=O)c1sc(-c2ccc(OS(=O)(=O)c3ccc(Br)s3)c(C=O)c2)nc1C`: the GI50 was 2960 nM and the TGI is 9200 nM.

Consider `Fc1ccc2[nH]cc(-c3nonc3-c3c[nH]c4ccc(Br)cc34)c2c1`, for which the GI50 is 1940 nM and the TGI is 4720 nM.

Take `C#CCOc1cccc(-c2ncnc3cc(NC(=O)CCl)ccc23)c1`: the GI50 is 1450 nM and the TGI is 3540 nM.

For `COc1cc(NC(N)=NCCC(C)(C)Oc2ccc(C(F)(F)F)cc2)ncc1C#N`, the GI50 was 1070 nM and the TGI came out at 2440 nM.
